# Data as given in US20140163099A1, “ANTIMICROBIAL COMPOSITION” (TAKASAGO INTERNATIONAL CORPORATION, priority 2011, published 2014).
# Assays:
# Format in all cases: cell-based
# [1] = test system: Actinomyces naeslundii (JCM8350); test: Growth inhibition activity (MIC, agar) against anaerobic bacteria; details: Actinomyces naeslundii, JCM8350, 72 h, strain JCM8350; Trypticase Soy Broth agar, 37 degrees C. for 3 days; read-out: MIC (Minimum Inhibitory Concentration)
# Procedure: (§1) In the present invention, the growth inhibition activity, which is an indicator of the antimicrobial activity, is evaluated by determining the Minimum Inhibitory Concentration (MIC) with an agar or liquid medium.
# (§2) In the test for growth inhibition activity, the following strains were used: • Acne bacteria: Propionibacterium acnes (JCM6473) and (ATCC6919) • Abscess bacteria: Bacteroides fragilis (GAI5560) • Cavity-causing bacteria: Streptococcus mutans (JCM5175), Actinomyces naeslundii (JCM8350) and Actinomyces viscosus (JCM8352) • Periodontal pathogen: Fusobacterium nucleatum (JCM6328), Porphyromonas gingivalis (JCM8525), Prevotella nigrescens (JCM6322)
# (§3) The test strains were cultured in a GAM medium (Nissui Pharmaceutical Co., LTD), a Schaedler Broth (BBL) or a Trypticase Soy Broth (BBL) liquid medium, and then the grown bacteria were diluted in saline to prepare turbidity 0.5 McFarland of the bacteria fluids for inoculation. The bacteria were cultured at 37 degrees C. for 3 days under an anaerobic condition by using AnaeroPack® from MGC.
# (§4) Furthermore, in order to examine the growth inhibition activities against the bacteria by the above cooling agent, the concentration of the cooling agents: (3S)-CA20, (3R)-CA20, CA1, CA5, CA15, CA55 or CA MGH was diluted with ethanol to the required level of concentrations for the determining the Minimum Inhibitory Concentration to produce the sample liquids.
# (§5) Next, 100 μL of each sample liquid was added to 10 mL of a Trypticase Soy Broth agar medium solution in a soluble state, and each agar medium solution was poured into a petri dish and solidified, to prepare the test plates. Subsequently, 5 μL of above the bacteria fluids for inoculation were stamped on the test plates, and then the test plates were cultured at 37 degrees C. for 3 days.
# (§6) The minimum concentration of the cooling agent in which the growth of bacteria could not be confirmed was considered as the MIC (Minimum Inhibitory Concentration).
# as §6
# [2] = test system: Actinomyces viscosus (JCM8352); test: as above; details: Actinomyces viscosus, 72 h; strain JCM8352; Trypticase Soy Broth agar, 37 degrees C. for 3 days; read-out: MIC (Minimum Inhibitory Concentration)
# Procedure: as §1, §2, §3, §4, §5, §6, §6
# [3] = test system: Bacteroides fragilis (GAI5560); test: as above; details: Bacteroides fragilis, 72 h; strain GAI5560; Trypticase Soy Broth agar, 37 degrees C. for 3 days; read-out: MIC (Minimum Inhibitory Concentration)
# Procedure: as §1, §2, §3, §4, §5, §6, §6
# [4] = test system: Porphyromonas gingivalis (JCM8525); test: as above; details: Porphyromonas gingivalis, JCM8525, 72 h, strain JCM8525; Trypticase Soy Broth agar, 37 degrees C. for 3 days; read-out: MIC (Minimum Inhibitory Concentration)
# Procedure: as §1, §2, §3, §4, §5, §6, §6
# [5] = test system: Prevotella nigrescens (JCM6322); test: as above; details: Prevotella nigrescens, JCM6322, 72 h, strain JCM6322; Trypticase Soy Broth agar, 37 degrees C. for 3 days; read-out: MIC (Minimum Inhibitory Concentration)
# Procedure: as §1, §2, §3, §4, §5, §6, §6
# [6] = test system: Propionibacterium acnes (ATCC6919); test: as above; details: Cutibacterium acnes, ATCC6919, 72 h, strain ATCC6919; Trypticase Soy Broth agar, 37 degrees C. for 3 days; read-out: MIC (Minimum Inhibitory Concentration)
# Procedure: as §1, §2, §3, §4, §5, §6, §6
# [7] = test system: Propionibacterium acnes (JCM6473); test: as above; details: Cutibacterium acnes, 72 h; strain JCM6473; Trypticase Soy Broth agar, 37 degrees C. for 3 days; read-out: MIC (Minimum Inhibitory Concentration)
# Procedure: as §1, §2, §3, §4, §5, §6, §6
# [8] = test system: Streptococcus mutans (JCM5175); test: as above; details: Streptococcus mutans, 72 h; strain JCM5175; Trypticase Soy Broth agar, 37 degrees C. for 3 days; read-out: MIC (Minimum Inhibitory Concentration)
# Procedure: as §1, §2, §3, §4, §5, §6, §6
# [9] = test system: Fusobacterium nucleatum (JCM6328); test: as above; details: 72 h, strain JCM6328, Trypticase Soy Broth agar, 37 degrees C. for 3 days, read-out: MIC (Minimum Inhibitory Concentration)
# Procedure: as §1, §2, §3, §4, §5, §6, §6
# [10] = test system: target microbe species; test: Growth inhibition activity compared with 3-menthoxypropane-1,2-diol; details: depending on kinds of target microbe species
# Source text: Although the all present cooling agents can have growth inhibition activities against both aerobic and anaerobic microorganisms (e.g. bacteria and fungi, etc.), menthyl 3-hydroxybutanoate and 3-menthoxypropan-1-ol have specifically high growth inhibition activities and potent growth inhibition activities against both aerobic and anaerobic microorganisms. Examples of microorganisms include Corynebacterium, Actinomyces and so on. Menthyl 3-hydroxybutanoate and 3-menthoxypropan-1-ol have 2 to 8 times as much growth inhibition activity as 3-menthoxypropane-1,2-diol (which is known as an antimicrobial agent), and can have more than or equal to 8 times as much growth inhibition activity as 3-menthoxypropane-1,2-diol, depending on kinds of target microbe species.
# Furthermore, when compared 2-methyl-3-(menthoxy)propane-1,2-diol with 3-menthoxypropane-1,2-diol (which is known as an antimicrobial agent), the former has about 2 times as much growth inhibition activity as the latter, depending on kinds of target microbe species. […]
# as §1
Structure (SMILES),MIC [1] [µg/mL],MIC [2] [µg/mL],MIC [3] [µg/mL],MIC [4] [µg/mL],MIC [5] [µg/mL],MIC [6] [µg/mL],MIC [7] [µg/mL],MIC [8] [µg/mL],MIC [9] [µg/mL],"growth inhibition activity as multiple of 3-menthoxypropane-1,2-diol [10]"
"CC(O)CC(=O)OC1CC(C)CCC1C(C)C [(3S)-CA20, menthyl 3-hydroxybutanoate]",100,100,100,< 50,100,200,200,200,–,–
"CC1CCC(C(C)C)C(OCC(C)(O)CO)C1 (stereo not shown) [CA1, 2-methyl-3-(menthoxy)propane-1,2-diol]",800,< 50,100,200,200,400,400,800,800,about 2 times
"CC1CCC(C(C)C)C(OCCO)C1 (stereo not shown) [CA5, 2-(menthoxy)ethanol]",800,200,200,–,200,400,400,800,400,–
"CC1CCC(C(C)C)C(OCC(O)CO)C1 (stereo not shown) [CA10, 3-menthoxypropane-1,2-diol, reference compound]",800,< 50,100,–,200,800,800,800,800,–
"CC1CCC(C(C)C)C(OCCCO)C1 (stereo not shown) [CA15, 3-menthoxypropan-1-ol]",400,200,100,–,100,400,200,400,400,–
"CC1CCC(C(C)(C)O)C(O)C1 (stereo not shown) [CA38, p-menthane-3,8-diol, reference compound]",> 1600,> 1600,1600,–,1600,> 1600,> 1600,> 1600,> 1600,–
"CC1CCC(C(C)C)C(OCCOCCO)C1 (stereo not shown) [CA55, 2-(2-menthoxyethoxy)ethanol]",800,800,100,–,100,800,800,800,800,–
"CC1CCC(C(C)C)C(OC(=O)C=O)C1 (stereo not shown) [CA MGH, menthyl glyoxylate]",200,200,50,50,–,100,200,100,100,–
"CNC(=O)C(C)(C(C)C)C(C)C [WS-23, N-methyl-2-isopropyl-2,3-dimethylbutanamide, reference compound]",> 1600,> 1600,> 1600,> 1600,> 1600,> 1600,> 1600,> 1600,–,–
"CC1CCC(C(C)C)C(O)C1 (stereo not drawn) [l-menthol, menthol, reference compound]",1600,1600,1600,–,1600,1600,1600,> 1600,1600,–
